# Results reported in PMC8541353, “A Novel Phenylpyrrolidine Derivative: Synthesis and Effect on Cognitive Functions in Rats with Experimental Ishemic Stroke” (Molecules, 2021).
# Key:
# [1] = tested on: rats with MCAO; assay: Open field test (OFT) after MCAO; type: in vivo, Wistar rats
# Description: A MCAO animal model was used to characterize the effects of compound 1 on the development and resolution of stroke. At the baseline, we performed the MRI and hole-board test before MCAO surgery. Once animals recovered after the surgery, we stratified them based on their background psycho-emotional status and performed a control MRI to access whether the occlusion was sufficient or not. […] From 24 h to day 7, the neurological status was assessed daily according to the neurological scale (mNSS). By the end of day 7, animals underwent MRI. In addition, MRI was performed on days 14 and 28 (Shceme 3)The hole-board test was repeated on days 10 and 24. The degree of motor function impairment, the deficit of exploratory behavior, and the recovery process were assessed in the beam walking test (BWT), which was performed twice on days 12 and 14. An open field test was carried out on days 16 and 26.
# In the first experimental series, the following test systems were used: HBT (OpenScience, Russia), OFT (OpenScience), and LDT (OpenScience). The design for the second experimental series was as follows. All rat behavioral changes were evaluated during the four weeks after stroke simulation. […] General neurological disorders were assessed using the modified neurological severity score (mNSS). Motor and cognitive impairment were evaluated using the following functional tests: BWT (OpenScience), HBT (OpenScience), and OFT (OpenScience). […] In this test, motor dysfunction in all four limbs was evaluated; specifically, the number of steps, errors, and slides were counted. The overall score was calculated using the following formula: score = errors + 0.5 × slides × 100/total number of steps [47]. […]
# The HBT was performed on postoperative days 10 and 24. In this test, the following parameters were assessed: orientational and motor activity (horizontal activity, arbitrary units: number of crossings; vertical activity, arbitrary units: number of head dips), anxiety level (immobility and grooming time and number of grooming and immobility events), and the number of central sector crossings. […]
# [2] = tested on: newborn rat cortical neurons; assay: Glutamate-induced excitotoxicity in newborn rat cortical neuron culture, MTT cell viability; type: cell-based, Wistar rats
# From the text: To confirm the predicted biological activity, we adopted a glutamate-induced excitotoxicity in the rat cortical neurons model. This work was based on previous findings that glutamate is a well-known excitatory CNS neurotransmitter, which contributes to normal neural transmission, development, differentiation, and plasticity. However, excessive extracellular glutamate levels cause uncontrolled continuous neuron depolarization, which can lead to neuronal death. Excitotoxicity is associated with several neurodegenerative conditions, including Huntington’s disease, Alzheimer’s disease, amyotrophic lateral sclerosis, Parkinson’s disease, and stroke/traumatic brain injury. To see whether compound 1 has neuroprotective effects, we studied the influence of compound 1 in glutamate-treated cortical neurons isolated from newborn Wistar rats (0–1 day).
# The primary culture of newborn rat cortical neurons was obtained as previously described. Briefly, cortical neurons were collected from newborn Wistar rats and inoculated onto culture plates (4 × 10^5 cell cm^–2). […]
# The cell viability was measured according to the cell ability of tetrazolium dye reduction. […] The formazan absorption at 492 nm was measured using a Zenyth 1100 (Anthos Labtec Instruments, GmbH, Salzburg, Austria) microplate reader.
smiles,measurement,setting,value
"O=C(CN1CC(c2ccccc2)CC1=O)NCCS(=O)(=O)[O-].[K+] (centres unmarked) [Compound 1, potassium 2-[2-(2-oxo-4-phenylpyrrolidin-1-yl)acetamido]ethane-1-sulfonate]",Locomotor activity (OFT),[1],higher
same,Immobility time (OFT) compared to the saline and piracetam groups,[1]; day 16,lower
same,Number of crossed areas (OFT),[1]; day 16,statistically significant increase
same,Increase of cell survival rate,"[2]; 50 µM compound 1 after exposure to 50 µM glutamate, MTT, maximum protective effect",37%
same,Neuroprotective effect at higher dose,[2]; 100 μM compound 1,decreases
